Results taken from publication PMC4658133, “Intrinsic Levanase Activity of Bacillus subtilis 168 Levansucrase (SacB)” (PLoS ONE, 2015).

Target: T1, levansucrase (SacB) (Bacillus subtilis, UniProt P05655)
T1 construct: expressed in Escherichia coli BL21, ion exchange purified
T1 sequence (P05655 30-473): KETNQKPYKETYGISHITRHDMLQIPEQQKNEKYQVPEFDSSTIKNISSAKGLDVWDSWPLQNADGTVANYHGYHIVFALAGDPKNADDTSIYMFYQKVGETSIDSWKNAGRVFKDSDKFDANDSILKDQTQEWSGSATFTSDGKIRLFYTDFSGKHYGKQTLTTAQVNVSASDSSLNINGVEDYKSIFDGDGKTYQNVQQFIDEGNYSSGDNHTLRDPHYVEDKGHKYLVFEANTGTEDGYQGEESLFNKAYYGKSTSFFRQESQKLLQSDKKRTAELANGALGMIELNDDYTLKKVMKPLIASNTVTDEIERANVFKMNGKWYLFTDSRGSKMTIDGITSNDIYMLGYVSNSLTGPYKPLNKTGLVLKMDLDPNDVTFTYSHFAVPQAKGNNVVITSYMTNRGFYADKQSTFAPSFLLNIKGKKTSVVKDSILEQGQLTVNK
Test: HPAEC-PAD product profile after […] h
Assay type: biochemical
Conditions: fructosyl acceptor, 127 mM; donor 2.5 mM LMw levan; 50 mM sodium acetate, 1 mM CaCl2, pH 6.0

**Q.** With `OC[C@H]1OC(O)[C@H](O)[C@@H](O)[C@@H]1O` (stereo partly shown) [glucose] as the molecule, how does the “HPAEC-PAD product profile after 5 h” value read?
**A.** The value was “These profile results from the fructosyl transfer from levan to glucose”.
